This is an account of results in the CombiSolv-Exp solvation set (Vermeire and Green 2021).

The data set in a line: solvent given as SMILES.

As for `O=Nc1c(O)ccc2ccccc12`, where the note is “in O”, the “solvation free energy, 298 K” value was -7.31 kcal/mol.
The same measure, in the same setting: to `CC(=O)Cc1ccccc1` belongs -5.62 kcal/mol.
Consider `CCCCCN(C)N=O`, for which the “solvation free energy, 298 K” value (in O) was -5.05 kcal/mol.
On to `CCOc1ccccc1`, for which the “solvation free energy, 298 K” value is -6.02 kcal/mol (in CCCCCC) and -2.22 kcal/mol (in O).
Consider `COCC(OC)(OC)OC`, for which the “solvation free energy, 298 K” value (in O) was -5.73 kcal/mol.
`C1CCCCCC1`: the “solvation free energy, 298 K” value by setting is: (in CC(C)O) -4.24 kcal/mol; (in CCCCCCCCCCCCCCCC) -4.83 kcal/mol; (in CCCO) -4.27 kcal/mol; (in CN1CCCC1=O) -3.99 kcal/mol; (in CN(C)C=O) -3.79 kcal/mol; (in CS(C)=O) -3.1 kcal/mol. The “solvation free energy, 298 K” value reads like this: (in N#CCCCCC#N) -3.34 kcal/mol; (in NCCO) -2.41 kcal/mol; (in O) 0.79 kcal/mol; (in O=Cc1ccco1) -3.85 kcal/mol; (in OCc1ccco1) -3.74 kcal/mol.
Take `Clc1ccc(Cl)c(-c2cc(Cl)ccc2Cl)c1`: the “solvation free energy, 298 K” value reads like this: (in CCCCCCCCO) -11.2 kcal/mol; (in O) -2.55 kcal/mol.
Consider `CCNc1nc(NC(C)C(C)C)nc(SC)n1` (stereo not drawn), for which the “solvation free energy, 298 K” value (in O) is -8.73 kcal/mol.
Same read-out and setting: then `CCCC1CCCC1`, with 2.13 kcal/mol; and `Cc1[nH]n(-c2ccccc2)c(=O)c1C(=O)c1ccccc1`, with -11.6 kcal/mol.
Regarding `CC(=O)Nc1ccccc1`, the “solvation free energy, 298 K” value by setting is: (in C1COCCO1) -11.8 kcal/mol; (in O) -9.79 kcal/mol.
Consider `O=C1C=CC(=O)C=C1`, for which, under “in O”, the “solvation free energy, 298 K” value is -6.5 kcal/mol.
With `O=C(O)c1cc([N+](=O)[O-])cc([N+](=O)[O-])c1`, the “solvation free energy, 298 K” value was -14.9 kcal/mol (in C1CCOC1); -14.6 kcal/mol (in C1COCCO1); -13.8 kcal/mol (in CC(C)CCO); -13.7 kcal/mol (in CC(C)CO); -14.1 kcal/mol (in CC(C)O); -13 kcal/mol (in CC(C)OC(C)C). In addition, the “solvation free energy, 298 K” value was -13.9 kcal/mol (in CCC(C)O); -13.9 kcal/mol (in CCCC(C)O); -13.6 kcal/mol (in CCCCCCCCCCO); -13.7 kcal/mol (in CCCCCCCCO); -13.7 kcal/mol (in CCCCCCCO); -13.8 kcal/mol (in CCCCCCO). In addition, the “solvation free energy, 298 K” value is -13.9 kcal/mol (in CCCCCO); -13.7 kcal/mol (in CCCCCOC(C)=O); -14 kcal/mol (in CCCCO); -13.9 kcal/mol (in CCCCOC(C)=O); -14.2 kcal/mol (in CCCO); -14.4 kcal/mol (in CCO). The “solvation free energy, 298 K” value runs as follows: (in CCOC(C)=O) -14.2 kcal/mol; (in CCOCC) -13.9 kcal/mol; (in CN(C)C=O) -14.8 kcal/mol; (in O) -11.3 kcal/mol.
As for `O=NN1CCCCC1`, the “solvation free energy, 298 K” value (in O) was -6.34 kcal/mol.
Take `ClC(Br)Br`: the “solvation free energy, 298 K” value (in CCCCCCCCO) was -4.9 kcal/mol.
Turning to `CC(=O)Nc1ccc(O)cc1`, the “solvation free energy, 298 K” value (in C1CCOC1) was -16.1 kcal/mol; the “solvation free energy, 298 K” value (in C1COCCO1) was -14.9 kcal/mol; the “solvation free energy, 298 K” value (in CC(C)(C)O) was -15.8 kcal/mol; the “solvation free energy, 298 K” value (in CC(C)CO) is -15.6 kcal/mol; the “solvation free energy, 298 K” value (in CC(C)O) is -16 kcal/mol; the “solvation free energy, 298 K” value (in CC(C)OCCO) is -16.1 kcal/mol. Moreover, the “solvation free energy, 298 K” value (in CC(O)COC(C)(C)C) is -15.5 kcal/mol; the “solvation free energy, 298 K” value (in CCC(C)O) was -15.8 kcal/mol; the “solvation free energy, 298 K” value (in CCCCCCCO) is -15.3 kcal/mol; the “solvation free energy, 298 K” value (in CCCCCCO) was -15.5 kcal/mol; the “solvation free energy, 298 K” value (in CCCCCO) is -15.6 kcal/mol; the “solvation free energy, 298 K” value (in CCCCO) was -15.8 kcal/mol. Moreover, the “solvation free energy, 298 K” value is -14.2 kcal/mol (in CCCCOC(C)=O); -12 kcal/mol (in CCCCOCCCC); -15.8 kcal/mol (in CCCCOCCO); -16.1 kcal/mol (in CCCO); -16.1 kcal/mol (in CCCOCCO); -16.4 kcal/mol (in CCOCCO). In addition, the “solvation free energy, 298 K” value was -17.3 kcal/mol (in CN(C)C=O); -16.6 kcal/mol (in CO); -13.4 kcal/mol (in COC(C)(C)C); -14.8 kcal/mol (in COC(C)=O); -16 kcal/mol (in COC(C)CCO); -12.8 kcal/mol (in ClCCl). For the same molecule, the “solvation free energy, 298 K” value reads like this: (in Fc1ccccc1) -12.1 kcal/mol; (in O) -14.9 kcal/mol.
Regarding `CNCCc1ccc(OC)cc1`, the “solvation free energy, 298 K” value is -9.47 kcal/mol (in C=CCCCCCCC=C) and -7.94 kcal/mol (in O).
As to `FC(F)C(F)Oc1ccccc1` (stereo not drawn), the “solvation free energy, 298 K” value (in O) is -1.29 kcal/mol.
Take `C1CCNCC1`: the “solvation free energy, 298 K” value was -5.22 kcal/mol (in C1CCOC1), -4.95 kcal/mol (in C1COCCO1), -4.87 kcal/mol (in COC(C)(C)C) and -5.11 kcal/mol (in O).
As to `Clc1ccccc1Cl`, the “solvation free energy, 298 K” value by setting is: (in C1CCOC1) -7.11 kcal/mol; (in C1COCCO1) -7.01 kcal/mol; (in CCCCCC) -6.14 kcal/mol; (in CCCCCCC) -6.01 kcal/mol; (in CCCCCCCCCCCCCCCC) -6.04 kcal/mol; (in CCCCCCCCO) -5.95 kcal/mol. Also, the “solvation free energy, 298 K” value reads like this: (in CN(C)C=O) -6.82 kcal/mol; (in ClC(Cl)(Cl)Cl) -6.79 kcal/mol; (in N#Cc1ccccc1) -6.82 kcal/mol; (in NC=O) -4.55 kcal/mol; (in O) -1.4 kcal/mol.
Turning to `c1ccc2c(c1)ccc1c3ccccc3ccc21`, the “solvation free energy, 298 K” value runs as follows: (in CCCCCCCCC=CCCCCCCCC(=O)OCC(COC(=O)CCCCCCCC=CCCCCCCCC)OC(=O)CCCCCCCC=CCCCCCCCC) -13.9 kcal/mol; (in O) -6.53 kcal/mol.
For the molecule `O=Cc1cccnc1`, the “solvation free energy, 298 K” value (in O) was -7.1 kcal/mol.
With `CCCCCCCCCCCCCCCCCCCCCCCC`, the “solvation free energy, 298 K” value (in CC(=O)N(C)C) is -16.4 kcal/mol; the “solvation free energy, 298 K” value (in CC(C)(C)O) was -14.6 kcal/mol; the “solvation free energy, 298 K” value (in CC(C)O) was -13.6 kcal/mol; the “solvation free energy, 298 K” value (in CCC(C)=O) is -14.8 kcal/mol; the “solvation free energy, 298 K” value (in CCCCCCCCCCO) is -15.2 kcal/mol; the “solvation free energy, 298 K” value (in CCCCCCO) is -14.2 kcal/mol. Further, the “solvation free energy, 298 K” value is, setting by setting: (in CCCCCO) -14.1 kcal/mol; (in CCCCO) -13.9 kcal/mol; (in CCCCOC(C)=O) -15.4 kcal/mol; (in CCCO) -13.8 kcal/mol; (in CCO) -13.4 kcal/mol; (in CN(C)C=O) -16.4 kcal/mol. Moreover, the “solvation free energy, 298 K” value (in CO) was -12.3 kcal/mol; the “solvation free energy, 298 K” value (in COC(C)(C)C) was -16.3 kcal/mol; the “solvation free energy, 298 K” value (in ClCCl) is -16 kcal/mol; the “solvation free energy, 298 K” value (in O) is 5.24 kcal/mol.
For the molecule `N#Cc1ccc(O)cc1`, the “solvation free energy, 298 K” value (in O) was -10.2 kcal/mol.
Same read-out and setting: to `CCCCOCC(C)O` (stereo not drawn) belongs -5.73 kcal/mol.
Regarding `C=C`, the “solvation free energy, 298 K” value is -0.52 kcal/mol (in Brc1ccccc1); -0.46 kcal/mol (in C1CCC2CCCCC2C1); -0.82 kcal/mol (in C1CCOC1); -0.58 kcal/mol (in C1COCCO1); -0.89 kcal/mol (in CC1CO1); -0.17 kcal/mol (in CC1COC(=O)O1). Also, the “solvation free energy, 298 K” value (in CC#N) is -0.62 kcal/mol; the “solvation free energy, 298 K” value (in CC(=O)N(C)C) is -0.45 kcal/mol; the “solvation free energy, 298 K” value (in CC(C)(C)O) was -0.49 kcal/mol; the “solvation free energy, 298 K” value (in CC(C)=O) was -0.76 kcal/mol; the “solvation free energy, 298 K” value (in CC(C)CO) is -0.46 kcal/mol; the “solvation free energy, 298 K” value (in CC(C)O) is -0.45 kcal/mol. For the same molecule, the “solvation free energy, 298 K” value is -0.44 kcal/mol (in CCC(C)O); -0.69 kcal/mol (in CCCCC); -0.64 kcal/mol (in CCCCCC); -0.62 kcal/mol (in CCCCCCC); -0.6 kcal/mol (in CCCCCCCC); -0.6 kcal/mol (in CCCCCCCCC). Besides, the “solvation free energy, 298 K” value was -0.57 kcal/mol (in CCCCCCCCCC); -0.39 kcal/mol (in CCCCCCCCCCCCCCCC); -0.37 kcal/mol (in CCCCCCCCO); -0.43 kcal/mol (in CCCCCCCO); -0.43 kcal/mol (in CCCCCCO); -0.48 kcal/mol (in CCCCCO). The “solvation free energy, 298 K” value is -0.46 kcal/mol (in CCCCO); -0.52 kcal/mol (in CCCO); -0.56 kcal/mol (in CCO); -0.97 kcal/mol (in CCOCC); -0.32 kcal/mol (in CN1CCCC1); -0.4 kcal/mol (in CN1CCCC1=O). Further, the “solvation free energy, 298 K” value (in CN(C)C=O) is -0.45 kcal/mol; the “solvation free energy, 298 K” value (in CN(C)P(=O)(N(C)C)N(C)C) is -0.52 kcal/mol; the “solvation free energy, 298 K” value (in CNC=O) was -0.2 kcal/mol; the “solvation free energy, 298 K” value (in CO) is -0.51 kcal/mol; the “solvation free energy, 298 K” value (in COC(C)=O) is -0.75 kcal/mol; the “solvation free energy, 298 K” value (in COCCOCCOCCOC) is -0.25 kcal/mol. In addition, the “solvation free energy, 298 K” value was -0.05 kcal/mol (in CS(C)=O); -0.61 kcal/mol (in Cc1cccc(C)c1); -0.78 kcal/mol (in ClC(Cl)(Cl)Cl); -0.49 kcal/mol (in ClCCCl); -0.61 kcal/mol (in Clc1ccccc1); -0.45 kcal/mol (in N#Cc1ccccc1). Also, the “solvation free energy, 298 K” value (in Nc1ccccc1) was -0.15 kcal/mol; the “solvation free energy, 298 K” value (in O) is 1.28 kcal/mol; the “solvation free energy, 298 K” value (in O=C1CCCC1) is -0.6 kcal/mol; the “solvation free energy, 298 K” value (in O=C1CCCCC1) is -0.55 kcal/mol; the “solvation free energy, 298 K” value (in OCCCOCCCO) is 0.06 kcal/mol; the “solvation free energy, 298 K” value (in OCCO) came out at 0.5 kcal/mol. Further, the “solvation free energy, 298 K” value is -0.23 kcal/mol (in OCc1ccccc1) and -0.66 kcal/mol (in c1ccccc1).
Turning to `Nc1ccc(S(=O)(=O)Nc2ccnn2-c2ccccc2)cc1`, under “in O”, the “solvation free energy, 298 K” value was -21.2 kcal/mol.
Still for that read-out and setting: to `Clc1ccc2c(c1)Oc1c(Cl)c(Cl)c(Cl)c(Cl)c1O2` belongs -4.15 kcal/mol.
Consider `NCCc1ccccc1`, for which the “solvation free energy, 298 K” value was -7.41 kcal/mol (in C=CCCCCCCC=C) and -6.56 kcal/mol (in O).
